Laboratory results published in patent US20200263231A1, “Fluorogenic dyes for high sensitivity DNA detection” (LIFE TECHNOLOGIES CORPORATION, priority 2016, published 2020).

Legend:
[1] = tested on: calf thymus DNA; assay: Fluorescence emission and enhancement of compounds bound to calf thymus DNA; assay type: binding; details: 0.8 μM compound with 500 ng/ml calf thymus DNA in TE buffer; for Emission Max: excited at 488 nm; for Fluorescence Enhancement: emission area 500-715 nm compared to compound 1, defined as 1000-fold
Procedure: Compounds 1-65 were prepared and their fluorescence absorption and emission characteristics were measured. Intrinsic fluorescence of the compounds only (without DNA) was negligible. Emission spectra for the compounds bound to dsDNA were obtained by incubating 0.8 μM compound with 500 ng/ml calf thymus DNA in TE buffer (10 mM Tris-HCl, pH 7.5, 1 mM EDTA) in a final volume of 3 ml. Measurements were made using PerkinElmer LS 55 (F-11) Fluorescence spectrometer. Samples were excited at 488 nm and fluorescence emission was measured with emission slit widths of 2.5 nm. Absorption maxima were determined according to standard techniques.
Fluorescence enhancement measurements of the compounds were obtained by incubating 0.8 μM compound with 500 ng/ml calf thymus DNA with compounds at a final concentration of 0.8 μM in TE buffer. Compound 1 was used as an internal standard to control for variability (e.g., in excitation light intensity). The area-under-curve of fluorescence emission spectra from 500 nm to 715 nm was calculated, and compared to that of compound 1, which was defined as having 1000-fold fluorescence enhancement relative to fluorescence of the compound alone.

[2] = UV/VIS absorption spectra; assay type: physicochemical; details: 10 μM compound in 50 mM potassium phosphate buffer (pH 7.0)
Procedure: The UV/VIS absorption spectra were obtained with 10 μM compound solution in 50 mM potassium phosphate buffer (pH 7.0) in a final volume of 3 mL. Measurements were carried out using a Lambda 245 spectrophotometer from Perkin Elmer.

[3] = tested on: dsDNA; assay: Microplate fluorescence when bound to dsDNA; assay type: binding; details: 500 ng/mL dsDNA
Procedure: Compounds were tested in triplicate for fluorescence enhancement when bound to dsDNA. 190 μL of 1 μM compound in 1× Tris-EDTA, pH 7.5, 0.01% CHAPS was added to 10 μL of 4 different concentrations of dsDNA (0, 25 ng/mL, 200 ng/mL, and 500 ng/mL) in wells of 96 well Costar black, clear bottom microplates. Plates were read on a SpectraFluor multifunction microplate reader (Tecan) at 491 nm excitation and 520 nm emission.
Compounds were tested for fluorescence enhancement when bound to dsDNA as described in Example 3. Fluorescence data with dsDNA are shown in FIG. 5 for the different tested compounds.

[4] = tested on: ssDNA; assay: Microplate fluorescence when bound to ssDNA; assay type: binding; details: for Ratio to R1, fluorescent emission with ssDNA / fluorescent emission with ssDNA: 500 ng/mL ssDNA; for ssDNA emission: text says 10 ng/μL
Procedure: The compounds from FIG. 1 were also characterized with respect to their fluorescence enhancement when bound to ssDNA. The compounds from FIG. 1, R1 and R2 were tested in triplicate. 190 μL of 1 μM compound in 1× Tris-EDTA pH7.5, 0.01% CHAPS was added to 10 μL of 4 different concentrations of ssDNA in wells of 96 well Costar black, clear bottom microplates. Plates were read on a SpectraFluor multifunction microplate reader (Tecan) at 491 nm excitation and 520 nm emission. Fluorescence data with ssDNA are shown in FIG. 3 for the different tested compounds.
Next, the compounds were compared for their fluorescence enhancement when bound to ssDNA as described in Example 1. Fluorescence data with ssDNA are shown in FIG. 6 for the different tested compounds.

[5] = tested on: dsDNA versus ssDNA; assay: In vitro selectivity dsDNA versus ssDNA; assay type: binding
Procedure: Six compounds (2, 34, 35, 41, 42, and 48) were characterized in in vitro selectivity experiments for double-stranded DNA (dsDNA) versus single-stranded DNA (ssDNA). These compounds were compared against comparative compounds R^1 and R^2.
For each individual compound, the dsDNA and ssDNA fluorescence emission at 10 ng/μL was compared to evaluate in vitro selectivity for dsDNA/ssDNA, as shown in FIG. 4.
Further in vitro selectivity experiments for double-stranded DNA (dsDNA) versus single-stranded DNA (ssDNA) were performed using the methods outlined in Example 3 to compare compounds 2, 34, 41, 42, and 48 to comparative compounds R1 and R2.
For each individual compound, the dsDNA and ssDNA fluorescence emission at 10 ng/μL was calculated to estimate in vitro selectivity, as shown in FIG. 7.

[6] = Example 3, Table 2, 1 μM compound, 491 nm excitation, 520 nm emission
[7] = Example 3, Table 3, 1 μM compound, 491 nm excitation, 520 nm emission
[8] = Example 3, Table 4, FIG. 4 says 500 ng/mL
[9] = Example 4, Table 7, FIG. 7 says 500 ng/mL

Structure (SMILES) | Emission Max [1] | Absorbance Max [2] | Fluorescence Enhancement [1] | other results
CCCN(CCC[N+](C)(C)CC)C1=CC(=Cc2sc3ccccc3[n+]2C)c2ccc(OC)cc2N1c1ccccc1.[I-].[I-] [Compound 43] | 519 nm | 494 nm | 1033 fold | –
CCCN(CCC[N+](C)(C)CCC)C1=CC(=Cc2sc3ccccc3[n+]2C)c2ccc(OC)cc2N1c1ccccc1.[I-].[I-] [Compound 44] | 518 nm | 494 nm | 1101 fold | –
CCCN(CCC[N+](C)(C)CCO)C1=CC(=Cc2sc3ccccc3[n+]2C)c2ccc(OC)cc2N1c1ccccc1.[I-].[I-] [Compound 45] | 517 nm | 494 nm | 1093 fold | –
CCCN(CCC[N+](C)(C)Cc1ccccc1)C1=C/C(=C/c2sc3ccccc3[n+]2C)c2ccc(OC)cc2N1c1ccccc1.[Br-].[I-] [Compound 46] | 520 nm | 494 nm | 931 fold | –
CCN(CCC[N+](C)(C)C)C1=CC(=Cc2sc3ccccc3[n+]2C)c2ccc(OC)cc2N1c1ccccc1.[I-].[I-] [Compound 49] | 520 nm | 490 nm | 1035 fold | –
CCN(CCC[N+](C)(C)CC)C1=CC(=Cc2sc3ccccc3[n+]2C)c2ccc(OC)cc2N1c1ccccc1.[I-].[I-] [Compound 50] | 519 nm | 490 nm | 1020 fold | –
CCN(CCC[N+](C)(C)CCO)C1=C/C(=C/c2sc3ccccc3[n+]2C)c2ccc(OC)cc2N1c1ccccc1 [Compound 52] | 519 nm | 490 nm | 1031 fold | –
CCN(CCC[N+](C)(C)Cc1cccc(OC)c1)C1=CC(=Cc2sc3ccccc3[n+]2C)c2ccc(OC)cc2N1c1ccccc1.[Br-].[I-] [Compound 54] | 517 nm | 490 nm | 1008 fold | –
CCN(CCN(C)C)C1=C/C(=C/c2sc3ccccc3[n+]2C)c2ccc(OC)cc2N1c1ccccc1.[I-] [Compound 55] | 520 nm | 496 nm | 908 fold | –
CCN(CC[N+](C)(C)CC)C1=C/C(=C/c2sc3ccccc3[n+]2C)c2ccc(OC)cc2N1c1ccccc1.[I-].[I-] [Compound 57] | 521 nm | 496 nm | 877 fold | –
CN(C)CCCC1=C/C(=C/c2sc3ccccc3[n+]2C)c2ccccc2N1c1ccccc1 [Compound 64] | 529 nm | 527 nm | 204 fold | –
CN(C)CCCN(CCCN(C)C)C1=CC(=Cc2sc3ccccc3[n+]2C)c2ccccc2N1c1ccccc1.[I-] [Compound R1, reference compound] | – | – | – | Ratio to R1, fluorescent emission with dsDNA ([3]; Example 3, Table 2): 1.00; fluorescent emission with dsDNA [3, 6]: 5441; Ratio to R1, fluorescent emission with dsDNA ([3]; Example 4, Table 5): 1.0; fluorescent emission with dsDNA ([3]; Example 4, Table 5): 5887; Ratio to R1, fluorescent emission with ssDNA ([4]; Example 3, Table 3): 1.0; fluorescent emission with ssDNA [4, 7]: 1081; ssDNA emission [4, 8]: 1081; fluorescent emission with ssDNA ([4]; Example 4, Table 6): 1080; ssDNA emission [4, 9]: 1080; ratio of dsDNA emission versus ssDNA emission ([5]; Example 3, Table 4): 5.0; ratio of dsDNA emission versus ssDNA emission ([5]; Example 4, Table 7): 5.5
COc1ccc2c(c1)N(c1ccccc1)C(N(CCC[N+](C)(C)C)CCC[N+](C)(C)C)=CC2=Cc1sc2ccccc2[n+]1C.I [Compound R2, reference compound] | – | – | – | Ratio to R1, fluorescent emission with dsDNA ([3]; Example 3, Table 2): 1.59; fluorescent emission with dsDNA [3, 6]: 8627; Ratio to R1, fluorescent emission with dsDNA ([3]; Example 4, Table 5): 1.7; fluorescent emission with dsDNA ([3]; Example 4, Table 5): 9941; Ratio to R1, fluorescent emission with ssDNA ([4]; Example 3, Table 3): 1.5; fluorescent emission with ssDNA [4, 7]: 1669; ssDNA emission [4, 8]: 1669; fluorescent emission with ssDNA ([4]; Example 4, Table 6): 1512; ssDNA emission [4, 9]: 1512; ratio of dsDNA emission versus ssDNA emission ([5]; Example 3, Table 4): 5.2; ratio of dsDNA emission versus ssDNA emission ([5]; Example 4, Table 7): 6.6

Now from value to molecule, other results behind:

Emission Max [1] | Absorbance Max [2] | Structure (SMILES) | Fluorescence Enhancement [1] | other results
518 nm | 495 nm | CCCN(CCC[N+](C)(C)Cc1cccc(OC)c1)C1=CC(=Cc2sc3ccccc3[n+]2C)c2ccc(OC)cc2N1c1ccccc1.[Br-].[I-] [Compound 47] | 1038 fold | –
520 nm | 490 nm | CCC[N+](C)(C)CCCN(CC)C1=CC(=Cc2sc3ccccc3[n+]2C)c2ccc(OC)cc2N1c1ccccc1.[I-].[I-] [Compound 51] | 1016 fold | –
520 nm | 490 nm | CCN(CCC[N+](C)(C)Cc1ccccc1)C1=C/C(=C/c2sc3ccccc3[n+]2C)c2ccc(OC)cc2N1c1ccccc1.[Br-].[I-] [Compound 53] | 1011 fold | –
523 nm | 499 nm | CCN(CC[N+](C)(C)C)C1=C/C(=C/c2sc3ccccc3[n+]2C)c2ccc(OC)cc2N1c1ccccc1.[I-].[I-] [Compound 56] | 894 fold | –
521 nm | 496 nm | CCC[N+](C)(C)CCN(CC)C1=C/C(=C/c2sc3ccccc3[n+]2C)c2ccc(OC)cc2N1c1ccccc1.[I-].[I-] [Compound 58] | 874 fold | –
520 nm | 498 nm | CCN(CC[N+](C)(C)CCO)C1=C/C(=C\c2sc3ccccc3[n+]2C)c2ccc(OC)cc2N1c1ccccc1.[I-].[I-] [Compound 59] | 863 fold | –
522 nm | 500 nm | CCN(CC[N+](C)(C)Cc1ccccc1)C1=C/C(=C/c2sc3ccccc3[n+]2C)c2ccc(OC)cc2N1c1ccccc1.[I-].[I-] [Compound 60] | 878 fold | –
540 nm | 514 nm | C[n+]1c(/C=C2/C=C(n3ccnc3)N(c3ccccc3)c3ccccc32)sc2ccccc21.[I-] [Compound 61] | 26 fold | –
– | 519 nm | C[n+]1ccn(C2=C/C(=C/c3sc4ccccc4[n+]3C)c3ccccc3N2c2ccccc2)c1.[I-].[I-] [Compound 62] | 0.3 fold | –
543 nm | 518 nm | C[n+]1c(/C=C2/C=C(n3cnc4ccccc43)N(c3ccccc3)c3ccccc32)sc2ccccc21.[Cl-] [Compound 63] | 42 fold | –
530 nm | 527 nm | C[n+]1c(/C=C2/C=C(CCC[N+](C)(C)C)N(c3ccccc3)c3ccccc32)sc2ccccc21 [Compound 65] | 136 fold | –
